# Experimental data published in patent US20100166660A1, “METHODS OF MODELING MIGRAINE PAIN AND IDENTIFYING CANDIDATE COMPOUNDS FOR THE TREATMENT OF MIGRAINE” (priority 2007, published 2010).
# Experiments:
# Type in all cases: in vivo, rat
# Male Sprague Dawley rats [1] = assay: Dural stimulus-induced tactile hyperesthesia of the hindpaw (50% paw withdrawal threshold, von Frey filaments); conditions: administered to the dura; results two hours after treatment; FIG. 4
# Description: Male Sprague Dawley rats were anesthetized using ketamine/xylazine (80-100 mg/kg, intraperitoneal). The top of the head was shaved using a rodent clipper (Oster Golden A5 w/size 50 blade), and the shaved area was cleaned with betadine and 70% ethanol. Animals were placed into a stereotaxic apparatus (Stoelting Co., #51600) and the body core temperatures of 37° C. were maintained using a heating pad placed below the animals. Within the shaved and cleaned area on the head, a 2 cm incision was made using a scalpel with a #10 blade, and any bleeding was cleaned using sterile cotton swabs. […]
# Paw withdrawal thresholds to tactile stimuli were determined in response to probing with calibrated von Frey filaments (Stoelting Co., #58011). […] The 50% paw withdrawal threshold was determined by the non-parametric method of Dixon (Dixon, Ann. Rev. Pharmacol. Toxicol. 20:441-462, 1980; also see, e.g., Chaplan et al., J. Neurosci. Meth. 53:55-63, 1994). […] This “up-down” method was repeated until three changes in behavior were determined. […]
# (§1) The 50% paw withdrawal threshold was determined as (10^[Xf+kδ])/10,000, where Xf is the value of the last von Frey filament employed, k is the Dixon value for the positive/negative pattern, and δ is the mean (log) difference between stimuli. […]
# Male Sprague Dawley rats [2] = assay: Candidate compound effect on tactile hyperesthesia of the hindpaw induced by dural inflammation (IM cocktail)
# Description: Paw withdrawal thresholds to tactile stimuli were determined in response to probing with calibrated von Frey filaments (Stoelting Co., #58011). The von Frey filaments were applied perpendicularly to the plantar surface of the hindpaw of the animal until it buckled slightly, and were held for three to six seconds. A positive response was indicated by a sharp withdrawal of the paw. The 50% paw withdrawal threshold was determined by the non-parametric method of Dixon (Dixon, Ann. Rev. Pharmacol. Toxicol. 20:441-462, 1980; also see, e.g., Chaplan et al., J. Neurosci. Meth. 53:55-63, 1994). […] This “up-down” method was repeated until three changes in behavior were determined. The pattern of positive and negative responses was tabulated.
# The 50% paw withdrawal threshold was determined as (10^[Xf+kδ])/10,000, where Xf is the value of the last von Frey filament employed, k is the Dixon value for the positive/negative pattern, and δ is the mean (log) difference between stimuli. Only naïve animals with baselines of 11 to 15 grams were used in the experiment. Fifteen grams was used as the maximal cut-off. Five days post-migraine surgery, paw withdrawal thresholds were re-tested using the same habituation and von Frey procedure as stated above. Data were converted to percent “antiallodynia” by the following formula: percent antiallodynia=100×(test value−post-treatment baseline value)/(pretreatment baseline value−post-treatment baseline value).
# After establishing baseline paw withdrawal thresholds, individual animals were removed from the testing chamber, the cap of the migraine intracranial guide tube was removed, and animals received an injection of either an IM cocktail (1 mM histamine, 1 mM serotonin, 1 mM bradykinin, and 1 mM prostaglandin E2) or vehicle (i.e., control) at 10 μl volume via the intracranial guide tube over a five- to ten-second period. The IM cocktail was made fresh on the day of each experiment. The cap of the intracranial guide tube was replaced, individual animals were placed back into their corresponding testing chamber, and paw withdrawal thresholds were measured at one-hour intervals over a six-hour time course. […] Data were converted to percent “antiallodynia” by the following formula: percent antiallodynia=100×(test value−post-treatment baseline value)/(pretreatment baseline value−post-treatment baseline value).
# Rats were anesthetized with ketamine/xylazine (80-100 mg/kg, intraperitoneal) for stereotaxic placement of bilateral cannulae in the RVM. […]
# Male Sprague Dawley rats [3] = assay: Candidate compound effect on facial tactile hyperesthesia induced by dural inflammation (IM cocktail)
# Description: In another set of experiments, facial response thresholds of the rats to tactile stimuli were determined. Calibrated von Frey filaments were applied perpendicularly to the midline of the forehead within a 3 mm diameter area just above the plane of the eyes, for six to eight seconds, until the filaments buckled slightly. A positive response was indicated by a sharp withdrawal of the head, which sometimes included an attempt to grasp and/or bite the filament. Special care was taken when applying the filaments to the forehead in order to prevent a positive facial response due to dynamic force and/or deflection of the hairs. The 50% facial response threshold was determined by the non-parametric method of Dixon. […] This “up-down” method was repeated until three changes in behavior were determined. The pattern of positive and negative responses was tabulated.
# as §1, with “facial response” for “paw withdrawal”, “stimuli. Only naïve animals with baselines of eight grams were used in the experiment. Eight grams was used as the maximal cut-off.” for “stimuli.”
# rats [4] = assay: Oral administration of compounds in the migraine model of the invention (tactile allodynia)
# Source text: Oral delivery was accomplished by using an 18-gauge gavage needle attached to a 1 cc syringe.
# rats [5] = assay: Model for allodynia: continuous drug infusion, then paw withdrawal threshold with von Frey filaments; conditions: continuous infusion (sumatriptan: 24 hour infusion at 0.6 mg/k/day); Appendix A-5
# Description: We have developed a model to determine the propensity for a compound to induce allodynia upon administration. Briefly, rats are infused continuously with a drug for a specified period of time. After the time, rats are probe with von Frey filaments to determine the paw withdrawal threshold. The compound may be administered for more than 2, 3, 4, 5, 6, 7, 8, 9, 10, 11, 12, 13, 14, 15, 16, 17, 18, 19, 20, 21, 22, 23, or 24 hours.
compound,measurement,setting,value
"N[C@@H](CCC(=O)N[C@@H](CSN=O)C(=O)NCC(=O)O)C(=O)O [SNOG, s-nitrosylglutathione]",tactile hyperesthesia of the hindpaw,Male Sprague Dawley rats [1],produced a tactile hyperesthesia effect similar to that induced by administration of the IM cocktail
CCCCN1CCCCC1C(=O)Nc1c(C)cccc1C (centres unmarked) [bupivacaine],paw withdrawal threshold versus rats with dural IM cocktail but no compound,"Male Sprague Dawley rats [2]; administration in the RVM thirty minutes after IM cocktail, FIG. 9A",increase in paw withdrawal threshold
same,paw withdrawal threshold versus rats with dural IM cocktail but no compound,"Male Sprague Dawley rats [2]; administration in the RVM two hours after IM cocktail, FIG. 9B",significant increase in test animal paw withdrawal threshold
same,facial response threshold versus rats with dural IM cocktail but no compound,"Male Sprague Dawley rats [3]; administration in the RVM thirty minutes after IM cocktail, FIGS. 7A-7B",increase in facial response threshold
CN1CC=C(c2c[nH]c3ccc(NC(=N)c4cccs4)cc23)CC1 [cpd 1],attenuation of tactile allodynia in the migraine model,"rats [4]; after oral administration, Appendix A-4",attenuated tactile allodynia
same,oral activity in the migraine model,"rats [4]; oral, Appendix A-3",orally active
same,induction of tactile allodynia after continuous infusion,rats [5],do not induce tactile allodynia
CNS(=O)(=O)Cc1ccc2[nH]cc(CCN(C)C)c2c1 [sumatriptan],induction of tactile allodynia after continuous infusion,rats [5],induces tactile allodynia
same,paw withdrawal threshold versus rats with dural IM cocktail but no compound,"Male Sprague Dawley rats [2]; 0.6 mg/kg s.c. ten minutes prior to IM cocktail, FIG. 8",increase in paw withdrawal threshold
same,development of tactile hyperesthesia (paw withdrawal thresholds),"Male Sprague Dawley rats [2]; sumatriptan succinate 1 mg/kg s.c. five minutes prior to dural IM cocktail, two hours after dural treatment, FIG. 10",prevent or ameliorate the development of tactile hyperesthesia
same,facial response threshold versus rats with dural IM cocktail but no compound,"Male Sprague Dawley rats [3]; systemic administration thirty minutes after IM cocktail, FIGS. 6A-6B",increase in facial response threshold
